In patent US4190657A, “Naphthyridine derivatives” (Synthelabo, priority 1976, dated 1980):
Like-named read-outs stand apart in the source and are kept apart here.

Tests used:
mice of the CD 1 strain = test: anoxia due to pressure reduction, survival time, mean active dose (MAD); assay type: in vivo, mice (CD 1 strain); conditions: mice CD 1, intraperitoneal, 10 minutes before the experiment, 190 mm of mercury, Table II; for ED (100% increase in survival time): Mus musculus, ip, read-out: ANOXIA DUE TO PRESSURE REDUCTION, mean active dose (MAD), dose which increases the survival time by 100%
Description: Mice of the CD 1 strain are kept in an atmosphere depleted in oxygen, by setting up a partial vacuum (190 mm. of mercury, corresponding to 5.25% of oxygen).
The survival time of the animals is noted. This time is increased by the agents capable of favouring oxygenation in the tissues and, in particular, in the brain. The compounds studied are administered intraperitoneally in several doses 10 minutes before the experiment. The percentage increases of the survival time relative to the values obtained with control animals are calculated. The mean active dose (MAD), namely the dose which increases the survival time by 100%, is determined graphically.
The results are indicated in Table II below for a representative number of compounds.

[1] = acute toxicity, 50 percent lethal dose (LD50), graphical method; assay type: in vivo; conditions: mouse, in vivo, ip, mice CD 1, intraperitoneal; Table II; read-out: ACUTE TOXICITY LD50 for intraperitoneal administration
Description: (§1) The 50 percent lethal dose (LD50) of the compounds is determined for mice of strain CD 1 by a graphical method.
(§2) The results are indicated in Table II below, for a representative number of compounds.

[2] = as above; conditions: mouse, in vivo, Table III
[3] = system: curarised rats ("sleep" induced by sodium 4-hydroxy-butyrate); test: action on the duration of the "sleep" induced by sodium 4-hydroxy-butyrate (GHB) in curarised rats; assay type: in vivo, rats (male, Charles River strain); conditions: for TOTAL DURATION of the "sleep" / change in vivo at 30 mg/kg / change in vivo at 10 mg/kg: GHB 200 mg/kg i.v.; for TOTAL DURATION of the "sleep": over 75 minutes, comparison 54.12 ± 2.07; for change in vivo at 30 mg/kg / change in vivo at 10 mg/kg: read-out: DIFFERENCE IN % RELATIVE TO THE CONTROLS (total duration of the "sleep")
Description: This action was determined from the influence of the compounds on the duration of the "sleep" induced by sodium 4-hydroxy-butyrate (GHB) in curarised rats.
The animals used are male rats of the Charles River strain, weighing 200±20 g. The animals, curarised by alloferin given intraperitoneally at the rate of 1 mg/kg, are placed under artificial respiration by means of a mask applied over the snout (respiration frequency: 40/minute; volume respired: 14 cc). The oesophagus is ligatured beforehand so as to avoid air entering the stomach.
Fronto-parietal and occipital cortical electrodes make it possible to record the electrocorticographic activity on a Grass model 79P polygraph at a speed of 6 mm/sec. The animals are prepared under local anaesthesia (2% xylocaine). The rats are kept at a constant temperature (37.5° C.) throughout the experiment. Ten minutes after the end of the preparation of the rat, a dose of 200 mg/kg of Na 4-hydroxybutyrate is injected intravenously into the tail. […]
The traces are evaluated for periods of 15 minutes over the course of 75 minutes after the injection of "GHB". During this period of analysis, the total duration of the "sleep" is determined. A series of 15 comparisons makes it possible precisely to define the duration of the "GHB sleep".
The statistical analysis of the results is carried out with the aid of the Mann-Whitney "U" test.

mice of strain CD 1 = test: acute toxicity, 50 percent lethal dose (LD50), graphical method; assay type: in vivo; conditions: mice CD 1, intraperitoneal; Table II
Description: as §1, §2

[4] = ip, intraperitoneal, read-out: TOXICITY intraperitoneal
[5] = Rattus norvegicus, ip, 1.25 h, read-out: […] % RELATIVE TO THE CONTROLS (total duration of the "sleep"), 30 mg/kg intraperitoneally
[6] = Rattus norvegicus, ip, 1.25 h, read-out: […] % RELATIVE TO THE CONTROLS (total duration of the "sleep"), 10 mg/kg intraperitoneally
[7] = iv, read-out: TOXICITY intravenous
[8] = Rattus norvegicus, ip, 1.25 h, 30 mg/kg intraperitoneally
[9] = Rattus norvegicus, ip, 1.25 h, 10 mg/kg intraperitoneally

| Compound | ED (100% increase in survival time) (mice of the CD 1 strain) [mg/kg] | LD50 [1] [mg/kg] | LD50 [2, 4] [mg/kg] | TOTAL DURATION of the "sleep" ([3]; 30 mg/kg intraperitoneally) [minutes. seconds] | other results |
| --- | --- | --- | --- | --- | --- |
| CC(=O)CN1CCc2c3n(c4ccccc24)C(=O)CCC31 (stereo not shown) [Compound 62] | 10 | 190 | – | – | – |
| COC(=O)[C@@H]1CC(=O)n2c3c(c4ccccc42)CCN(C)[C@H]31 (relative stereo) [Compound 1 trans m.s., Methyl 1,2,3,3a,4,5-hexahydro-3-methyl-6-oxo-6H-indolo[3,2,1-de][1,5]naphthyridine-4-carboxylate] | – | – | 185 | – | LD50 ([2]; intravenous, read-out: TOXICITY intravenous): 47 mg/kg; TOTAL DURATION of the "sleep" ([3]; 40 mg/kg intraperitoneally): 32.01 ± 2.59 minutes. seconds; change in vivo at 40 mg/kg ([3]; Rattus norvegicus, ip, 1.25 h, read-out: […] % RELATIVE TO THE CONTROLS (total duration of the "sleep")): -41% |
| CC1=CCC2c3c(c4ccccc4n31)CCN2C (stereo not shown) [Compound 9, 1,2,3,3a-Tetrahydro-3,6-dimethyl-4H-indolo[3,2,1-de][1,5]naphthyridine] | 6.5 | 78 | – | – | – |
| CCN1CCc2c3n(c4ccccc24)C(=O)CCC31 (stereo not shown) [Compound 3] | 9 | 58 | – | – | – |
| CCN1CCc2c3n(c4ccccc24)C(C)CCC31 (stereo not shown) [28 (m.s.)] | 4.5 | 40 | – | – | – |
| CN1CCc2c3n(c4ccccc24)C(=O)CCC31 (stereo not shown) [2 (m.s.), 1,2,3,3a,4,5-Hexahydro-3-methyl-6H-indolo[3,2,1-de][1,5]naphthyridin-6-one] | – | – | – | – | ANOXIA DUE TO PRESSURE REDUCTION, mean active dose (MAD), dose which increases the survival time by 100% (mice of the CD 1 strain): 4.5; ACUTE TOXICITY LD50 for intraperitoneal administration (mice of strain CD 1): 52 mg/kg |
| CC(O)CCN1CCc2c3n(c4ccccc24)C(=O)CCC31 (single isomer, unassigned) [35 (base, isomer A)] | 9 | 150 | – | – | – |
| COC(=O)C1CC(=O)n2c3c(c4cc(Cl)ccc42)CCNC31 (stereo not shown) [Compound 51] | – | – | 760 | 37.51 ± 2.12 | change in vivo at 30 mg/kg [3, 5]: -30% |
| COC(=O)[C@@H]1CC(=O)n2c3c(c4cc(F)ccc42)CCN(C)[C@@H]31 (relative stereo) [Compound 60 cis-isomer] | – | – | 725 | – | TOTAL DURATION of the "sleep" ([3]; 10 mg/kg intraperitoneally): 34.22 ± 2.47 minutes. seconds; change in vivo at 10 mg/kg [3, 6]: -37% |
| CC(O)CN1CCc2c3n(c4ccccc24)C(=O)CCC31 (single isomer, unassigned) [Compound 63 isomer A] | – | – | 125 | 34.52 ± 2.14 | LD50 [2, 7]: 75 mg/kg; change in vivo at 30 mg/kg [3, 8]: -36% |
| CCN1CCc2c3n(c4ccccc24)C(C)(O)CCC31 (stereo not shown) [Compound 21] | 7 | 75 | – | – | – |
| CCOC(=O)[C@@H]1CC(=O)n2c3c(c4ccccc42)CCN(C)[C@@H]31 (relative stereo) [30 (m.s.)] | 9 | 110 | – | – | – |
| CN1CCc2c3n(c4ccccc24)C(=O)CCC31 (stereo not shown) [Compound 2 (base), 1,2,3,3a,4,5-Hexahydro-3-methyl-6H-indolo[3,2,1-de][1,5]naphthyridin-6-one] | 6 | 85 | – | – | – |
| O=C1CCC2NCCc3c2n1c1cccc(Cl)c31 (stereo not shown) [Compound 65] | – | – | 54 | – | TOTAL DURATION of the "sleep" ([3]; 10 mg/kg intraperitoneally): 34.51 ± 1.42 minutes. seconds; change in vivo at 10 mg/kg [3, 9]: -36% |
| CCCN1CCc2c3n(c4ccccc24)C(C)(O)CCC31 (stereo not shown) [Compound 22] | 8 | 105 | – | – | – |
| CC1CCC2c3c(c4ccccc4n31)CCN2C (stereo not shown) [Compound 10] | 6.5 | 50 | – | – | – |
| COC(=O)[C@@H]1CC(=O)n2c3c(c4cc(Cl)ccc42)CCN[C@@H]31 (relative stereo) [Compound 58 cis-isomer] | – | – | 190 | 36.08 ± 2.47 | change in vivo at 30 mg/kg [3, 5]: -33% |
| CC(=O)CCN1CCc2c3n(c4ccc(Cl)cc24)C(=O)CCC31 (stereo not shown) [Compound 56] | – | – | 575 | 30.39 ± 3.01 | TOTAL DURATION of the "sleep" ([3]; 10 mg/kg intraperitoneally): 43.07 ± 3.26 minutes. seconds; change in vivo at 10 mg/kg [3, 9]: -20%; change in vivo at 30 mg/kg [3, 8]: -43% |
| COC(=O)[C@@H]1CC(=O)n2c3c(c4ccccc42)CCN(CCC(C)=O)[C@@H]31 (relative stereo) [Compound 49 m.s.cis] | – | – | 600 | 38.51 ± 3.12 | TOTAL DURATION of the "sleep" ([3]; 10 mg/kg intraperitoneally): 35.22 ± 2.26 minutes. seconds; change in vivo at 10 mg/kg [3, 6]: -35%; change in vivo at 30 mg/kg [3, 5]: -28% |
| CCN1CCc2c3n(c4ccccc24)C(C)=CCC31 (stereo not shown) [Compound 26] | 10 | 67 | – | – | – |
| Cc1ccc2c(c1)c1c3n2C(=O)CCC3NCC1 (stereo not shown) [Compound 11] | – | – | 155 | 34.08 ± 1.21 | LD50 [2, 7]: 105 mg/kg; change in vivo at 30 mg/kg [3, 8]: -37% |
| COc1ccc2c(c1)c1c3n2C(=O)CCC3N(C)CC1 (stereo not shown) [Compound 38] | 8 | 65 | – | – | – |
| COC(=O)[C@@H]1CC(=O)n2c3c(c4ccccc42)CCN(C)[C@@H]31 (relative stereo) [1 (m.s.cis), Methyl 1,2,3,3a,4,5-hexahydro-3-methyl-6-oxo-6H-indolo[3,2,1-de][1,5]naphthyridine-4-carboxylate] | 4 | 170 | – | – | – |
| CN1CCc2c3n(c4ccc(Cl)cc24)C(=O)CCC31 (stereo not shown) [Compound 53] | 8 | 150 | – | – | – |
| O=C1CCC2NCCc3c2n1c1ccc(F)cc31 (stereo not shown) [Compound 54] | – | – | 100 | 28.28 ± 4.28 | TOTAL DURATION of the "sleep" ([3]; 10 mg/kg intraperitoneally): 40.01 ± 5.00 minutes. seconds; change in vivo at 10 mg/kg [3, 9]: -26%; change in vivo at 30 mg/kg [3, 8]: -47% |
| Cc1ccc2c3c4n(c2c1)C(=O)CCC4N(C)CC3 (stereo not shown) [Compound 69] | – | – | 88 | – | TOTAL DURATION of the "sleep" ([3]; 10 mg/kg intraperitoneally): 29.46 ± 1.27 minutes. seconds; change in vivo at 10 mg/kg [3, 9]: -45% |
| CC(=O)CCN1CCc2c3n(c4ccccc24)C(=O)CCC31 (stereo not shown) [Compound 33] | 8 | 170 | – | – | – |
| O=C1CCC2NCCc3c2n1c1ccc(Cl)cc31 (stereo not shown) [Compound 52] | 9.5 | 165 | – | 32.35 ± 5.02 | LD50 [2, 7]: 110 mg/kg; TOTAL DURATION of the "sleep" ([3]; 10 mg/kg intraperitoneally): 37.34 ± 3.35 minutes. seconds; change in vivo at 10 mg/kg [3, 9]: -31%; change in vivo at 30 mg/kg [3, 8]: -40% |
| COC(=O)CCN1CCc2c3n(c4ccccc24)C(=O)CCC31 (stereo not shown) [Compound 19] | – | – | 680 | 38.59 ± 1.20 | LD50 [2, 7]: 103 mg/kg; change in vivo at 30 mg/kg [3, 8]: -28% |
| COC(=O)[C@@H]1CC(=O)n2c3c(c4cc(Cl)ccc42)CCN[C@H]31 (relative stereo) [Compound 58 trans-isomer] | – | – | 170 | 31.12 ± 2.18 | change in vivo at 30 mg/kg [3, 5]: -42% |
